Among the data in patent publication US9499493B2, “2,4-pyrimidinediamine compounds and their uses” (Rigel Pharmaceuticals, Inc., priority 2002, dated 2016) are IC50 values, retold here.

The subject of assay [1] is cultured human mast cells (CHMC). Nature of the assay: CHMC low cell density ionomycin activation: tryptase assay. It is filed as cell-based.
The test system is the same in assay [2]. Nature of the assay: CHMC low cell density IgE activation: tryptase assay. It is filed as cell-based. Conditions: anti-IgE. The essentials:
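Cultured human mast cells (1000-1500 cells/well, donor-dependent) equilibrated 1 hr at 37° C, then stimulated with anti-IgE for 30 min at 37° C. Tryptase released into the supernatant is measured with a fluorogenic tryptase substrate after 30 min at room temperature.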

A value given as a limit tells only on which side of the number the result lay.

On to `CNC(=O)COc1cccc(Nc2ncc(F)c(Nc3cccc(NC)c3)n2)c1` [R950267, N4-(3-N-Methylaminophenyl)-5-fluoro-N2-[3-(N-methylamino)carbonylmethyleneoxyphenyl]-2,4-pyrimidinediamine], for which the half-inhibitory concentration (IC50) in assay [1] is over 10 µM; in assay [2], 0.18 µM.
For `CCOC(=O)COc1cccc(Nc2ncc(F)c(Nc3ccc(O)c(C(=O)O)c3)n2)c1` [R950290, N4-(3-Carboxy-4-hydroxyphenyl)-5-fluoro-N2-[3-ethoxycarbonylmethyleneoxyphenyl]-2,4-pyrimidinediamine], the IC50 in assay [1] and in assay [2] was over 10 µM in each case.
`O=C(O)COc1cccc(Nc2ncc(F)c(Nc3ccc(O)c(C(=O)O)c3)n2)c1` [R950291, N4-(3-Carboxy-4-hydroxyphenyl)-5-fluoro-N2-[3-carboxymethyleneoxyphenyl]-2,4-pyrimidinediamine]: the IC50 in assay [1] and in assay [2] was over 10 µM throughout.
Regarding `CCOC(=O)COc1cccc(Nc2ncc(F)c(Nc3ccc(O)c(C(=O)OC)c3)n2)c1` [R950293, N4-(3-Methoxycarbonyl-4-hydroxyphenyl)-5-fluoro-N2-[3-ethoxycarbonylmethyleneoxyphenyl]-2,4-pyrimidinediamine], the IC50 in assay [1] was determined as 8.15 µM; in assay [2], 3.69 µM.
As to `CCOC(=O)COc1cccc(Nc2ncc(F)c(Nc3ccc4c(c3)C(OC)CCO4)n2)c1` (stereo not shown) [R950294, N4-(4-Methoxy-3,4-dihydro-2H-1-benzopyran-6-yl)-5-fluoro-N2-[3-ethoxycarbonylmethyleneoxyphenyl]-2,4-pyrimidinediamine], the IC50 in assay [1] turned out to be 8.01 µM; in assay [2], 2 µM.
For the compound `COC(=O)COc1cccc(Nc2ncc(F)c(Nc3ccc4c(c3)C(OC)CCO4)n2)c1` (stereo not shown) [R950295, N4-(4-Methoxy-3,4-dihydro-2H-1-benzopyran-6-yl)-5-fluoro-N2-[3-methoxycarbonylmethyleneoxyphenyl]-2,4-pyrimidinediamine], the IC50 in assay [1] was determined as 8.79 µM; in assay [2] it was 2.04 µM.
The corresponding values for `CCOC1CCOc2ccc(Nc3nc(Nc4cccc(OCC(=O)NC)c4)ncc3F)cc21` (stereo not shown) [R950296, N4-(4-Ethoxy-3,4-dihydro-2H-1-benzopyran-6-yl)-5-fluoro-N2-[3-(N-methylamino)carbonylmethyleneoxyphenyl]-2,4-pyrimidinediamine] are over 10 µM and 0.495 µM.
On the same counts, the results for `CNC(=O)COc1cccc(Nc2ncc(F)c(Nc3ccc(OCCC(=O)OC)cc3)n2)c1` [R950346, N4-(4-Methoxycarbonylethyleneoxyphenyl)-5-fluoro-N2-[3-(N-methylamino)carbonylmethyleneoxyphenyl]-2,4-pyrimidinediamine] are over 10 µM and 0.345 µM.
On the same counts, the results for `CNC(=O)COc1cccc(Nc2ncc(F)c(Nc3ccc4c(c3)C(O)CCO4)n2)c1` (stereo not shown) [R950349, N4-(4-Hydroxy-3,4-dihydro-2H-1-benzopyran-6-yl)-5-fluoro-N2-[3-(N-methylamino)carbonylmethyleneoxyphenyl]-2,4-pyrimidinediamine] are over 10 µM and 0.078 µM.
Consider `CNC(=O)COc1cccc(Nc2ncc(F)c(Nc3cccc(C(=O)c4ccccc4)c3)n2)c1` [R950372, N4-(3-Phenylcarbonylphenyl)-5-fluoro-N2-[3-(N-methylamino)carbonylmethyleneoxyphenyl]-2,4-pyrimidinediamine], for which the IC50 in assay [1] is over 10 µM; in assay [2], 1.35 µM.
For `CNC(=O)COc1cccc(Nc2ncc(F)c(Nc3cccc(C(=NO)c4ccccc4)c3)n2)c1` [R950374, N4-(3-Phenylcarbonyloximephenyl)-5-fluoro-N2-[3-(N-methylamino)carbonylmethyleneoxyphenyl]-2,4-pyrimidinediamine], the figures for the IC50 in assay [1] and in assay [2] were over 10 µM and 0.599 µM, respectively.
As for `CC(=NO)c1cccc(Nc2ncc(F)c(Nc3cccc(C(C)=NO)c3)n2)c1` [R950379, N2,N4-Bis(3-methylcarbonyloximephenyl)-5-fluoro-2,4-pyrimidinediamine], the figures for the IC50 in assay [1] and in assay [2] were over 10 µM and 0.545 µM, respectively.
Consider `ON=C(c1ccccc1)c1cccc(Nc2ncc(F)c(Nc3cccc(C(=NO)c4ccccc4)c3)n2)c1` [R950380, N2,N4-Bis(3-phenylcarbonyloximephenyl)-5-fluoro-2,4-pyrimidinediamine], for which the IC50 is over 10 µM in assay [1] and 3 µM in assay [2].
On to `CNC(=O)COc1cccc(Nc2ncc(F)c(Nc3ccc(OC(F)(F)F)c(C(=O)OC)c3)n2)c1` [R950392, N4-(3-Methoxycarbonyl-4-trifluoromethoxyphenyl)-5-fluoro-N2-[3-(N-methylamino)carbonylmethyleneoxyphenyl]-2,4-pyrimidinediamine], for which the half-maximal inhibitory concentration (IC50) was over 10 µM in assay [1] and 0.956 µM in assay [2].
As for `CNC(=O)COc1cccc(Nc2ncc(F)c(Nc3ccc4c(c3)C(NC(C)=O)CCO4)n2)c1` (stereo not shown) [R950393, N4-(4-Acetylamino-3,4-dihydro-2H-1-benzopyran-6-yl)-5-fluoro-N2-[3-(N-methylamino)carbonylmethyleneoxyphenyl]-2,4-pyrimidinediamine], the results for the IC50 in assay [1] and in assay [2] were over 10 µM and 0.404 µM, respectively.
On to “N2,N4-Bis(methoxycarbonylbenzyl)-5-cyano-2,4-pyrimidinediamine [R925819]”, for which the IC50 in assay [1] and in assay [2] was over 10 µM each time.
Turning to “N2-(3,4-Ethylenedioxyphenyl)-5-ethoxycarbonyl-4-[N-(L)-phenyl glycinyl ethyl ester)-2-pyrimidineamine [R926536]”, the IC50 in assay [1] and in assay [2] was over 10 µM in each case.
As for “N2-(3-Ethylcarboxy-4H-imidazo[5,1-c]-1,4-benzoxazin-6-yl)-5-fluoro-N4-(3-hydroxyphenyl)pyrimidinediamine [R909267]”, the IC50 in assay [1] was over 10 µM; in assay [2], 0.589 µM.
On to “N2-(Carboxymethyleneaminophenyl)-5-fluoro-N4-[3-(2-hydroxyethyloxy)phenyl]-2,4-pyrimidinediamine [R950230]”, for which the IC50 in assay [1] is over 10 µM; in assay [2] it was 7.91 µM.
On the same counts, the results for “N2-[3-(N-2-Aminoethylamino)carbonylmethylene aminophenyl]-5-fluoro-N4-[3-(2-hydroxyethylenoxy)phenyl]-2,4-pyrimidinediamine [R950232]” are over 10 µM and 10 µM.
